According to the NIST ThermoML archive (doi:10.1021/je060271a):

Conditions: 283.15 K, Liquid, Vibrating tube method

CCCCCC(=O)OCC(COC(=O)CCCCC)(COC(=O)CCCCC)COC(=O)CCCCC [pentaerythritol tetrahexanoate]
Conditions	mass density [kg/m3]
20425 kPa	1015.6
20443 kPa	1015.7
20458 kPa	1015.7
20473 kPa	1015.7
20491 kPa	1015.7
20506 kPa	1015.6
20522 kPa	1015.6
20537 kPa	1015.7
20555 kPa	1015.7
20571 kPa	1015.7
20586 kPa	1015.8
20606 kPa	1015.7
20621 kPa	1015.7
20637 kPa	1015.9
20652 kPa	1015.7
20670 kPa	1015.8
20686 kPa	1015.8
20701 kPa	1015.7
20719 kPa	1015.8
20735 kPa	1015.7
20750 kPa	1015.8
20769 kPa	1016
20785 kPa	1015.8
20801 kPa	1016
20817 kPa	1015.9
20836 kPa	1015.8
20851 kPa	1015.8
20867 kPa	1015.8
20886 kPa	1015.9
20902 kPa	1015.9
20918 kPa	1015.9
20937 kPa	1015.9
20953 kPa	1015.9
20968 kPa	1015.9
20988 kPa	1015.9
21004 kPa	1016
21021 kPa	1016
21040 kPa	1016
21057 kPa	1016
21073 kPa	1016
21092 kPa	1016
21106 kPa	1016
21122 kPa	1016
21140 kPa	1016.1
21155 kPa	1016
21170 kPa	1015.9
21185 kPa	1016.1
21204 kPa	1016.1
21219 kPa	1016
21237 kPa	1016
21252 kPa	1016.1
21267 kPa	1016.1
21282 kPa	1016.1
21301 kPa	1016.1
21316 kPa	1016.1
21332 kPa	1016.1
21350 kPa	1016.1
21366 kPa	1016.2
21384 kPa	1016.2
21399 kPa	1016.1
21415 kPa	1016.1
21430 kPa	1016.2
21449 kPa	1016.3
21465 kPa	1016.1
21480 kPa	1016.2
21499 kPa	1016.1
21514 kPa	1016.3
21530 kPa	1016.3
21546 kPa	1016.3
21565 kPa	1016.2
21581 kPa	1016.1
21597 kPa	1016.3
21616 kPa	1016.3
21632 kPa	1016.3
21648 kPa	1016.3
21667 kPa	1016.2
21684 kPa	1016.3
21699 kPa	1016.3
21715 kPa	1016.3
21734 kPa	1016.4
21766 kPa	1016.3
21786 kPa	1016.3
21802 kPa	1016.5
21821 kPa	1016.3
21837 kPa	1016.4
21853 kPa	1016.4
21870 kPa	1016.3
21887 kPa	1016.3
21904 kPa	1016.4
21923 kPa	1016.5
21940 kPa	1016.5
21959 kPa	1016.4
21976 kPa	1016.5
21992 kPa	1016.5
22008 kPa	1016.5
22028 kPa	1016.5
22044 kPa	1016.5
22061 kPa	1016.5
22081 kPa	1016.5
22098 kPa	1016.4
22117 kPa	1016.6
22134 kPa	1016.7
22150 kPa	1016.5
22170 kPa	1016.6
22187 kPa	1016.6
22204 kPa	1016.7
22224 kPa	1016.5
22241 kPa	1016.6
22261 kPa	1016.5
22278 kPa	1016.5
22295 kPa	1016.5
22316 kPa	1016.6
22333 kPa	1016.6
22350 kPa	1016.7
22367 kPa	1016.7
22386 kPa	1016.7
22402 kPa	1016.7
22421 kPa	1016.6
22436 kPa	1016.7
22452 kPa	1016.7
22468 kPa	1016.6
22487 kPa	1016.8
22503 kPa	1016.7
22522 kPa	1016.7
22538 kPa	1016.8
22555 kPa	1016.8
22574 kPa	1016.7
22590 kPa	1016.8
22607 kPa	1016.7
22623 kPa	1016.8
22643 kPa	1016.7
22660 kPa	1016.7
22676 kPa	1016.8
22695 kPa	1016.9
22710 kPa	1016.9
22728 kPa	1016.8
22744 kPa	1016.8
22760 kPa	1016.9
22779 kPa	1016.9
22795 kPa	1017
22810 kPa	1016.8
22826 kPa	1017
22845 kPa	1017
22861 kPa	1016.8
22880 kPa	1017
22895 kPa	1017
22911 kPa	1016.9
22928 kPa	1017
22946 kPa	1017
22963 kPa	1017
22982 kPa	1016.9
22997 kPa	1017.1
23012 kPa	1016.9
23030 kPa	1017.2
23045 kPa	1016.9
23060 kPa	1017
23075 kPa	1017
23093 kPa	1017
23108 kPa	1017.1
23124 kPa	1017.1
23142 kPa	1017.1
23157 kPa	1017
23175 kPa	1017
23191 kPa	1017.1
23206 kPa	1017.1
23221 kPa	1017.2
23240 kPa	1017
23255 kPa	1017.2
23274 kPa	1017.3
23290 kPa	1017.1
23305 kPa	1017
23323 kPa	1017.2
23339 kPa	1017.2
23354 kPa	1017.2
23370 kPa	1017.3
23389 kPa	1017
23405 kPa	1017.1
23422 kPa	1017.2
23437 kPa	1017.2
23456 kPa	1017.3
23472 kPa	1017.2
23488 kPa	1017.3
23507 kPa	1017.3
23523 kPa	1017.3
23539 kPa	1017.3
23555 kPa	1017.3
23574 kPa	1017.4
23590 kPa	1017.3
23607 kPa	1017.3
23627 kPa	1017.4
23640 kPa	1017.5
23659 kPa	1017.4
23675 kPa	1017.3
23691 kPa	1017.3
23711 kPa	1017.4
23726 kPa	1017.3
23746 kPa	1017.4
23762 kPa	1017.4
23778 kPa	1017.3
23794 kPa	1017.3
23813 kPa	1017.5
23830 kPa	1017.5
23849 kPa	1017.4
23866 kPa	1017.5
23883 kPa	1017.5
23902 kPa	1017.5
23919 kPa	1017.4
23935 kPa	1017.5
23951 kPa	1017.5
23971 kPa	1017.5
23988 kPa	1017.5
24004 kPa	1017.5
24024 kPa	1017.5
24041 kPa	1017.6
24061 kPa	1017.6
24078 kPa	1017.6
24095 kPa	1017.6
24111 kPa	1017.6
24131 kPa	1017.6
24148 kPa	1017.7
24185 kPa	1017.6
24202 kPa	1017.5
24222 kPa	1017.8
24239 kPa	1017.6
24272 kPa	1017.8
24327 kPa	1017.7
24364 kPa	1017.7
24382 kPa	1017.7
24399 kPa	1017.7
24419 kPa	1017.6
24436 kPa	1017.7
24457 kPa	1017.8
24474 kPa	1017.8
24492 kPa	1017.9
24509 kPa	1017.7
24530 kPa	1017.9
24548 kPa	1017.9
24565 kPa	1017.9
24586 kPa	1017.7
24603 kPa	1017.7
24620 kPa	1017.8
24641 kPa	1018
24659 kPa	1017.8
24676 kPa	1017.9
24697 kPa	1017.9
24715 kPa	1017.9
24733 kPa	1017.8
24754 kPa	1017.8
24772 kPa	1018
24789 kPa	1018
24810 kPa	1017.9
24828 kPa	1017.9
24846 kPa	1017.9
24867 kPa	1017.9
24884 kPa	1018
24903 kPa	1017.8
24924 kPa	1018
24942 kPa	1018
24960 kPa	1018.1
24981 kPa	1018
25000 kPa	1018
25018 kPa	1018
25037 kPa	1018.1
25059 kPa	1018.2
25077 kPa	1018
25095 kPa	1018.1
25117 kPa	1018.2
25135 kPa	1018.2
25154 kPa	1018.1
25175 kPa	1018.1
25194 kPa	1018.1
25212 kPa	1018.1
25234 kPa	1018.2
25253 kPa	1018.2
25272 kPa	1018.1
25290 kPa	1018.1
25309 kPa	1018.2
25331 kPa	1018.2
25350 kPa	1018.2
25372 kPa	1018.2
25391 kPa	1018.3
25410 kPa	1018.2
25428 kPa	1018.2
25451 kPa	1018.2
25470 kPa	1018.3
25489 kPa	1018.2
25511 kPa	1018.1
25530 kPa	1018.3
25553 kPa	1018.2
25572 kPa	1018.3
